Test results as given in US11306100B2, “Spirooxindole compounds as GSK3B inhibitors and process for preparation thereof” (COUNCIL OF SCIENTIFIC & INDUSTRIAL RESEARCH, priority 2017, dated 2022).

Assays:
PANC-1 cells [1] = experiment: Cell viability, Sulforhodamine B assay; format: cell-based; settings: for inhibition at 30 µM: Homo sapiens, PANC-1, 30 μM compound in combination with TRAIL (10 ηg/mL), read-out: inhibition of cell growth; for effectiveness against cell growth / sensitisation to TRAIL: in combination with TRAIL (10 ηg/mL), FIG. 3A
Description: Cell viability was measured using Sulforhodamine B assay. The cytotoxic effect of the compounds with GSK3β inhibitory potential was tested against PANC-1 cells. Initially, the PANC-1 cells were seeded in flat bottom 96-well plate (5000 cells/100 μL) in complete medium and cultured for 18 hrs under standard conditions. After 18 h the cells were treated with either the different concentration of compounds, standard drugs or DMSO as solvent control. The final DMSO concentration to cells was maintained <2% in all cytotoxic assays. Each compound was tested in triplicate and the cytotoxicity was determined as the average of that triplicate. Further, the plates were incubated for another 48 h in an incubator maintained at 37° C. with a constant supply of 5% CO2. The cells were fixed using 10% TCA and incubated for 1 h at 4° C. Then the plates were rinsed carefully with MQ water and air dried at room temperature. To all the wells of MTP plate 0.057% SRB solution was added and kept for approximately 30 min before it was rinsed off using 1% acetic acid. The plates were then air dried and 100 μL of 10 mM tris base was added to each well to solubilize the SRB before absorbance was measured at 510 nm. The measure of absorbance is directly proportional to cell growth and is thus used to calculate % reduction in the rate of cell proliferation according to control DMSO treated cells. All experiments were performed in triplicates; mean % age proliferation values with ±SD were plotted here.

PANC-1 cells [2] = experiment: Colony formation (soft agar, clonogenic) assay; format: cell-based
Description: To determine the efficiency of GSK3β inhibitors in combination with the TRIAL on anchorage independent growth of PANC-1 cells soft agar assay were performed. The base agar (0.5%) was prepared by mixing equal amounts of 1% agar with 2× media (20% FBS and 2× antibiotics) filled in 6-well plate. Simultaneously, PANC-1 cells (14000/well) mixed with 2× media containing different concentrations of identified compounds alone or in combination with TRAIL mixed with 0.7% of sterile agar to achieve final concentration of […] top agar. The cell suspension was spread on solidified base agar. Then the plates were incubated in CO2 incubator for 14 days and the cells were fed with fresh media containing respective concentration and combination of TRIAL every 3 days. Upon termination (after 14 days of incubation) plates were stained with 0.005% of crystal violet for 1 h and excess stain was removed by washing with MQ. The number of blue colonies were counted using olympus Xi71 microscope.

PANC-1 cells [3] = experiment: Cell cycle analysis / cell death by PI uptake, flow cytometry; format: cell-based; settings: for cell death by FACS: 25 uM compound; for cell death (% of cells in subG1): in combination with TRAIL versus compounds alone or TRAIL alone
Description: To determine effect of GSK3β inhibitors on cell death and/or cell cycle progression, PANC-1 cells were treated with identified molecules with or without TRAIL. Upon treatment with compounds in combination with TRAIL, PANC-1 cell death was determined with propidium iodide (PI) uptake measured by Flow cytometry. Treated cells were harvested in cold PBS and fixed in 70% ethanol at −20° C. for overnight. The fixed cells were by centrifugation and re-suspended in PI ([…]) solution containing RNase (0.1 mg/mL) and Triton X-100 (0.05%). The cells were incubated in dark for 1 h at room temperature. The excess PI was washed out using PBS, the resultant PI uptake was analyzed by FACS Caliber System (BD Bio-science, Erembodegem, Belgium) in an FL-2 fluorescence detector (10000 events were recorded for each condition). Flow cytometry data was analyzed using FCS express 4 software (De Novo Software, Los Angeles, Calif., USA).

[4] = test system: NF-kB activity in PANC-1 cells; experiment: NFkB luciferase reporter assay; format: cell-based; settings: 48 h treatment, dose dependent
Description: In order to evaluate the effect of GSK3β inhibition on NF-kB activity, a reporter assay has been performed in the presence of identified inhibitors. To perform reporter assays, PANC-1 cells were cultured in a 48 well plate (16000 cells/well) overnight. Following day, cells were transfected with appropriate amount NF-kB reporter construct using lipofectamine 2000 as per manufacturer's protocol. After 16 hrs of post transfection cells were treated with identified GSK3β inhibitors and positive controls. After 48 h of treatment, cells were harvested in directly 1×ccl buffer. For measuring luciferase activity, 5 μl of cell lysate was mixed with 20 μl of assay reagent containing substrate for luciferase in MTP well plate as per manufacturer's protocol. The luciferase activity was determined by measuring luminescence at wavelengths in multimode reader. The protein concentration of the lysates was estimated by Bradford assay to normalize luciferase activity with protein present in the lysates. Then the relative luciferase activity was calculated according to control cells treated with DMSO set to 1. All experiments were performed in triplicates and the mean values with ±SD are presented here.

recombinant GSK3β = recombinant GSK3β (Homo sapiens, UniProt P49841); experiment: ADP-Glo kinase assay of GSK3β activity; format: biochemical; settings: for IC50: GSK3β kinase activity, 2 μM ATP
Description: Activity of recombinant GSK3β is measured using ADP-Glo Kinase assay according to supplier's standard protocol with minor modifications in 384 well format. Briefly, kinase reaction mixture was prepared by adding […] of recombinant enzyme, 2 μM ATP, 1 μg of enzyme substrate along with test compound or DMSO to a final volume of 5 μl. The kinase reaction was performed by incubating the mixture at room temperature for 17 mins. To correct reaction back ground a substrate blank reaction was also performed. ADP glow reagent (equal volume to reaction mixture) was added to the reaction mixture to deplete any unused ATP added to the kinase reaction and incubated at further 40 min at 27° C. Then 10 μl of kinase detection reagent was added followed by incubation for 30 min at 27° C. to convert ADP to ATP and introduce luciferase to measure kinase activity. The luminescence was measured using luminometer (Perkin Elmer) which is directly proportional to ADP generated in kinase reaction. To determine the amount of ADP produced in kinase reaction and calculate specific activity of the enzyme, a conversion curve is prepared by serial dilution of ADP and ATP mixture. Specific activity of the GSK3β was calculated using the following equation. (ADP(kinase reaction)−ADP(substrate blank)) in mmol)/(Reaction time in min)×(GSK3β in mg).

[5] = compound in the presence of TRAIL 10 ηg/mL

Chain of recombinant GSK3β (P49841 whole entry): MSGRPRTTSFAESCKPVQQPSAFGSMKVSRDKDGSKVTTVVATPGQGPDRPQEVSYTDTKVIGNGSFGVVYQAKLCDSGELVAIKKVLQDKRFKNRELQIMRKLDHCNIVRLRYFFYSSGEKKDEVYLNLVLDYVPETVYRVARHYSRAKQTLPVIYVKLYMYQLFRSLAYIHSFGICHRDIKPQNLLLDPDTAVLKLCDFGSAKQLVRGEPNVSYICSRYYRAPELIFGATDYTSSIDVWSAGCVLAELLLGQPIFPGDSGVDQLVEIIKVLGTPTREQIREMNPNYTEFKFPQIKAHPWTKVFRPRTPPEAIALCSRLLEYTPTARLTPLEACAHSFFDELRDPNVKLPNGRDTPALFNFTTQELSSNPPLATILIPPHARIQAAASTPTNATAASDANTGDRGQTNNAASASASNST

Row | Structure (SMILES) | inhibition at 30 µM (PANC-1 cells [1]) | effectiveness against cell growth / sensitisation to TRAIL (PANC-1 cells [1]) | inhibition of colony formation (PANC-1 cells [2]; compound alone, 14 days) | inhibition of colony formation (PANC-1 cells [2]; [5]) | cell death by FACS (PANC-1 cells [3]) | cell death (% of cells in subG1) (PANC-1 cells [3]) | NFkB luciferase activity [4] | inhibition of GSK3β in in-vitro kinase assays (recombinant GSK3β) | IC50 (recombinant GSK3β)
1 | CCOC(=O)c1ccc(-c2ccccc2OCc2cn(CC3CC4(CO3)C(=O)Nc3ccccc34)nn2)nc1C (stereo not drawn) [AB-O, Ethyl 2-methyl-6-(2-((1-((2′-oxo-4,5-dihydro-2H-spiro[furan-3,3′-indoline]-5-yl)methyl)-1H-1,2,3-triazol-4-yl)methoxy)phenyl)nicotinate] | 50% | more effective | dose-dependent inhibition | more effective inhibition of colony formation | cell death even at 25 uM | more cell death | significantly decreased | potent inhibition | 3.88 ± 0.01 µM
2 | COc1ccccc1N1CCN(CC2CC3(CO2)C(=O)Nc2ccccc23)CC1 (stereo not drawn) [AB-U, 5-((4-(2-Methoxyphenyl)piperazin-1-yl)methyl)-4,5-dihydro-2H-spiro[furan-3,3′-indolin]-2′-one] | 50% | more effective | dose-dependent inhibition | more effective inhibition of colony formation | cell death even at 25 uM | more cell death | significantly decreased | potent inhibition | 4.92 ± 0.13 µM
